Measurements taken from the supplement of paper PMC10307832.

Compound: Cc1ccc(Nc2nccc(N(C)c3ccc4c(C)n(C)nc4c3)n2)cc1S(N)(=O)=O [Pazopanib] + CS(=O)(=O)N1CCN(Cc2cc3nc(-c4cccc5[nH]ncc45)nc(N4CCOCC4)c3s2)CC1 [Pictilisib] (partner 1 µM)
Assay: relative viability (nuclei count vs DMSO), 5 days (fraction); higher = more cells survive
Settings: first compound 0.01 µM
In short: (§1)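 Dosing by pin tool came one day after lung cancer cell lines were seeded in 1536-well plates, using either one drug or a fixed anchor-drug dose plus five library-drug doses (not always all listed) in √10 steps. After 5 days, nuclei were counted on 4× images. Relative viability is treated-well nuclei count divided by vehicle-well nuclei count, and values are medians of duplicate plates.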

| Cell Line | relative viability |
| --- | --- |
| NCI-H3122 | 0.516 |
| HOP-62 | 0.479 |
| HCC-44 | 0.421 |
| LU99A | 0.241 |
| BEN | 0.514 |
| HARA | 0.26 |
| HCC-78 | 0.2 |
| NCI-H441 | 0.449 |
| A-427 | 0.612 |
| NCI-H460 | 0.275 |
| NCI-H727 | 0.356 |
| NCI-H1734 | 0.385 |
| NCI-H2405 | 0.321 |
| 201T | 0.602 |

Same assay, conditions: first compound 0.03162 µM

| Cell Line | relative viability |
| --- | --- |
| NCI-H3122 | 0.638 |
| HOP-62 | 0.768 |
| HCC-44 | 0.599 |
| LU99A | 0.374 |
| BEN | 0.621 |
| HARA | 0.332 |
| HCC-78 | 0.216 |
| NCI-H441 | 0.52 |
| LCLC-97TM1 | 0.196 |
| A-427 | 0.705 |
| NCI-H460 | 0.339 |
| NCI-H727 | 0.244 |
| NCI-H1734 | 0.448 |
| NCI-H2405 | 0.514 |
| NCI-H1793 | 0.361 |
| 201T | 0.603 |

Same assay, conditions: first compound 0.1 µM

| Cell Line | relative viability |
| --- | --- |
| NCI-H3122 | 0.689 |
| HCC-44 | 0.659 |
| LU99A | 0.356 |
| BEN | 0.515 |
| HARA | 0.493 |
| HCC-78 | 0.194 |
| NCI-H441 | 0.573 |
| LCLC-97TM1 | 0.195 |
| A-427 | 0.692 |
| NCI-H460 | 0.345 |
| NCI-H727 | 0.497 |
| NCI-H1734 | 0.437 |
| NCI-H2405 | 0.424 |
| NCI-H1793 | 0.355 |
| 201T | 0.709 |

Same assay, conditions: first compound 0.3162 µM

| Cell Line | relative viability |
| --- | --- |
| NCI-H3122 | 0.688 |
| HOP-62 | 0.874 |
| HCC-44 | 0.521 |
| LU99A | 0.35 |
| BEN | 0.567 |
| HARA | 0.479 |
| HCC-78 | 0.214 |
| NCI-H441 | 0.603 |
| LCLC-97TM1 | 0.201 |
| A-427 | 0.746 |
| NCI-H460 | 0.429 |
| NCI-H727 | 0.393 |
| NCI-H1734 | 0.53 |
| NCI-H2405 | 0.583 |
| NCI-H1793 | 0.392 |
| 201T | 0.742 |

Same assay, conditions: first compound 1 µM

| Cell Line | relative viability |
| --- | --- |
| NCI-H3122 | 0.803 |
| HOP-62 | 0.874 |
| HCC-44 | 0.673 |
| LU99A | 0.35 |
| BEN | 0.488 |
| HARA | 0.343 |
| HCC-78 | 0.202 |
| NCI-H441 | 0.39 |
| LCLC-97TM1 | 0.179 |
| A-427 | 0.782 |
| NCI-H460 | 0.407 |
| NCI-H727 | 0.483 |
| NCI-H1734 | 0.461 |
| NCI-H2405 | 0.586 |
| NCI-H1793 | 0.36 |
| 201T | 0.695 |

Compound: Cc1ccc(C(=O)Nc2ccc(CN3CCN(C)CC3)c(C(F)(F)F)c2)cc1C#Cc1cnc2cccnn12 [Ponatinib] + O=C(c1cc(Cc2n[nH]c(=O)c3ccccc23)ccc1F)N1CCN(C(=O)C2CC2)CC1 [Olaparib] (partner 8 µM)
Assay: as above
Settings: first compound 0.002 µM
In short: as §1

| Cell Line | relative viability |
| --- | --- |
| NCI-H3122 | 0.507 |
| HOP-62 | 0.313 |
| HCC-44 | 0.942 |
| LU99A | 0.259 |
| BEN | 1.06 |
| HARA | 0.757 |
| HCC-78 | 0.836 |
| NCI-H441 | 0.437 |
| LCLC-97TM1 | 0.48 |
| A-427 | 0.707 |
| NCI-H460 | 0.335 |
| NCI-H727 | 0.609 |
| NCI-H1734 | 0.62 |
| NCI-H2405 | 0.784 |
| NCI-H1793 | 0.882 |
| 201T | 0.833 |

Same assay, conditions: first compound 0.006325 µM

| Cell Line | relative viability |
| --- | --- |
| NCI-H3122 | 0.634 |
| HOP-62 | 0.172 |
| HCC-44 | 0.997 |
| LU99A | 0.246 |
| BEN | 1.18 |
| HARA | 0.825 |
| HCC-78 | 0.819 |
| NCI-H441 | 0.477 |
| LCLC-97TM1 | 0.452 |
| A-427 | 0.835 |
| NCI-H460 | 0.395 |
| NCI-H727 | 0.742 |
| NCI-H1734 | 0.618 |
| NCI-H2405 | 0.796 |
| NCI-H1793 | 0.986 |
| 201T | 0.853 |

Same assay, conditions: first compound 0.06325 µM

| Cell Line | relative viability |
| --- | --- |
| NCI-H3122 | 0.564 |
| HOP-62 | 0.211 |
| HCC-44 | 0.923 |
| LU99A | 0.255 |
| BEN | 1.13 |
| HARA | 0.777 |
| HCC-78 | 0.825 |
| NCI-H441 | 0.578 |
| LCLC-97TM1 | 0.385 |
| A-427 | 0.842 |
| NCI-H460 | 0.412 |
| NCI-H727 | 0.587 |
| NCI-H1734 | 0.673 |
| NCI-H2405 | 0.95 |
| NCI-H1793 | 1.01 |
| 201T | 0.878 |

Same assay, conditions: first compound 0.2 µM

| Cell Line | relative viability |
| --- | --- |
| NCI-H3122 | 0.592 |
| HOP-62 | 0.355 |
| HCC-44 | 0.929 |
| LU99A | 0.255 |
| BEN | 0.92 |
| HARA | 0.874 |
| HCC-78 | 0.726 |
| NCI-H441 | 0.438 |
| LCLC-97TM1 | 0.334 |
| A-427 | 0.66 |
| NCI-H460 | 0.397 |
| NCI-H727 | 0.627 |
| NCI-H1734 | 0.488 |
| NCI-H2405 | 0.776 |
| NCI-H1793 | 0.756 |
| 201T | 0.806 |

Compound: Cc1ccc(Nc2nccc(N(C)c3ccc4c(C)n(C)nc4c3)n2)cc1S(N)(=O)=O [Pazopanib] + NC(=O)Nc1cc(-c2cccc(F)c2)sc1C(=O)N[C@H]1CCCNC1 [AZD7762] (partner 0.2 µM)
Assay: as above
Settings: first compound 0.01 µM
In short: as §1

| Cell Line | relative viability |
| --- | --- |
| NCI-H3122 | 0.962 |
| HOP-62 | 0.739 |
| HCC-44 | 1.07 |
| BEN | 0.592 |
